Data taken from PMC2745333 (Molecular Microbiology, 2009).

Molecular target: PspF1−275 (Escherichia coli, UniProt P37344)
Experiment: analytical gel filtration, ADP-dependent dimer-to-hexamer shift
Format: binding
Details: 0.5 mM ADP, 10 μM protein, pH 8.0, 15 mM MgCl2, room temperature

PspF1−275, sequence (P37344 1-275): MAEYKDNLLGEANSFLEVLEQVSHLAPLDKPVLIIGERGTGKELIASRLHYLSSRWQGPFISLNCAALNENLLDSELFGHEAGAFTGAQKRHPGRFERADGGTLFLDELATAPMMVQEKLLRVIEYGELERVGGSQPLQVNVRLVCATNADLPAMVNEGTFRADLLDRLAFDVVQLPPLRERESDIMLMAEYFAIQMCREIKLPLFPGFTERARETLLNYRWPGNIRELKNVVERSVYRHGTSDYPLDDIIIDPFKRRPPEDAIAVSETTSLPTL

With `Nc1ncnc2c1ncn2[C@@H]1O[C@H](COP(=O)(O)OP(=O)(O)O)[C@@H](O)[C@H]1O` [ADP] the “analytical gel filtration, ADP-dependent dimer-to-hexamer shift” value was “dimers (Fig. 4A) in the absence of nucleotide and hexamers in the presence of ADP”.
